# Reference: patent US10358405B2, “Myricanol derivatives and uses thereof for treatment of neurodegenerative diseases” (UNIVERSITY OF SOUTH FLORIDA, priority 2012, dated 2019)
# Legend:
# tau [1] = assay: Tau-reducing-guided fractionation study of Myrica cerifera (tau destabilizer activity); assay type: cell-based; conditions: read-out: IC50 as tau destabilizer agent
# Procedure: The bayberry root-bark powder (5×1 kg) was extracted with 5×2 L of toluene under agitation in a (5×) flask protected from light (3×24 h). The filtrate was concentrated and gave 58 g of extract. The toluene extract was purified using silica gel MPLC, eluting with a gradient of 0 to 40% ethyl acetate/hexanes to yield 27 g of (+)-aR,11S-myricanol [α]D^21=48.2 (c=1.1, Chloroform).
# tau [2] = assay: Tau level reduction in HeLa cells stably transfected with tau treated with myricanol derivatives; assay type: cell-based; conditions: for reduction of levels of tau proteins: summary statement
# Procedure: To assess the effects of the aqueous bayberry extract on overexpressed and endogenous tau levels, HeLa cells stably transfected with tau were treated with the myricanol derivatives.
# [3] = Table 1, tau-reducing activity, result in words
# [4] = HeLa cells stably transfected with tau
IC50 (tau [1]) [µM],Compound,Results (tau [2]; [3]),Results (tau [2]; [4]),"tau-reducing activity, dose-dependent bioassay (tau [2]; concentration of 20 μg/mL)",reduction of levels of tau proteins (tau [2]),"reduction of protein tau levels, time-dependent bioassay (tau [2]; treatment of HeLa cells for 24 hours)"
35,"COc1c2cc(c(O)c1OC)CCCC[C@H](O)CCc1ccc(O)c-2c1 [Compound 1, Myricanol]",moderate activity,,,,
,"O=C(/C=C/c1ccc(O)cc1)CC(=O)/C=C/c1ccc(O)cc1 [Compound 10, Bisdemethoxycurcumin]",active,active,,,
,"CCCCCCCCC[C@H](O)CC(=O)CCc1ccc(O)c(OC)c1 [Compound 11, [10]-Gingerol]",Active,active,,,
,"COc1c2cc(c(O)c1OC)CCC/C=C/CCc1ccc(O)c-2c1 [Compound 18, Myricacene A (trans)]",active,active,,,
,"COc1c2cc(c(O)c1OC)CCCC/C=C/Cc1ccc(O)c-2c1 [Compound 19, Myricacene B (trans)]",active,active,,,
,"COc1c2cc(c(O)c1OC)CCC/C=C\CCc1ccc(O)c-2c1 [Compound 21, Myricacene A (cis)]",moderately active,moderately active,,,
,"COc1c2cc(c(O)c1OC)CCCC/C=C\Cc1ccc(O)c-2c1 [Compound 22, Myricacene B (cis)]",active,active,potent tau-reducing compound,potently reduce levels of tau proteins,
,COc1cc2c(c(O)c1OC)CCCC1CCCc3ccc(O)c-2c31 (stereo not drawn) [Compound 23],very active,very active,,potently reduce levels of tau proteins,potently reduces protein tau levels
,COc1c2cc(c(O)c1OC)CCCCC1CCc3ccc(O)c-2c31 (stereo not drawn) [Compound 24],active,active,,,
,Demethoxycurcumin [Compound 9],active,active,,,
